The data set has as its target T1, TLR9 (Mus musculus, UniProt Q9EQU3).
T1 construct: endogenous in cells; host or cells: Flt3L-derived dendritic cells cultured from bone marrow of female Balb/C mice
T1 sequence (Q9EQU3 26-1032): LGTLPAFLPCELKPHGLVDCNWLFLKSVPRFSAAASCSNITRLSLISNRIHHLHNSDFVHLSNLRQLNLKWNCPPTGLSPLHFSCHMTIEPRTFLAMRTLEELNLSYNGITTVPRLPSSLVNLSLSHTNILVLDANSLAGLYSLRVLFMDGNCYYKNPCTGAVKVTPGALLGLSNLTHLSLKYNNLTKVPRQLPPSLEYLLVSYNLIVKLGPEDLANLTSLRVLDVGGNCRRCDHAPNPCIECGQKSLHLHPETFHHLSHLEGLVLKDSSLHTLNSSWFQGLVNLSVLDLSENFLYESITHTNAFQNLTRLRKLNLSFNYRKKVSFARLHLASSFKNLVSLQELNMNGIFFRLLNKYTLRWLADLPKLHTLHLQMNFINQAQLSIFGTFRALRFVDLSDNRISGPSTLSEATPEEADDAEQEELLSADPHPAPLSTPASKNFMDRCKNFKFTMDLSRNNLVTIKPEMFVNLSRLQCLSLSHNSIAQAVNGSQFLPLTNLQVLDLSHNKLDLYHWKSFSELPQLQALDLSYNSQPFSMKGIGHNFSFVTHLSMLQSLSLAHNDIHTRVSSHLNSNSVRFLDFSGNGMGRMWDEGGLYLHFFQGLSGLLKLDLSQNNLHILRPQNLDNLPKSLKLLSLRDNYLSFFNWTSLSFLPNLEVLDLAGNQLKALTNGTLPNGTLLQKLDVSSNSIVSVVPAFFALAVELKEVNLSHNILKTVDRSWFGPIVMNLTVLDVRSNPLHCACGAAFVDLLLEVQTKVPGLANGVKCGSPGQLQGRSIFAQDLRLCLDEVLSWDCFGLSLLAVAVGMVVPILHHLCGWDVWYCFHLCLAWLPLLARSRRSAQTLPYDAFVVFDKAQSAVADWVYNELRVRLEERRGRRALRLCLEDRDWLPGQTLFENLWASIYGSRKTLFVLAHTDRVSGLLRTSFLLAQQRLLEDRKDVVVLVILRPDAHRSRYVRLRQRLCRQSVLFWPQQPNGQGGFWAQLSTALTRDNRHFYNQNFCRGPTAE
The data set is described as follows: CpG ODN (TLR9 agonist)-induced IFN-α in murine Flt3L-derived dendritic cells. The note with it: murine Flt3L DC; 1:1 molar ratio. Format: cell-based. Here is the method: Lipid Encapsulation of RNA and ODN. RNA or ODN were encapsulated in liposomes by a process of spontaneous vesicle formation as described in Judge et al., supra, and Jeffs et al., Pharm. Res., 22:362-372 (2005).
Flt3L-derived dendritic cells (DC) were generated as described in Gilliet et al., J. Exp. Med., 195:953-958 (2002), using 100 ng/ml murine Flt3-ligand (Peprotech) supplemented media. Femurs and tibiae of female Balb/C mice were isolated and rinsed in sterile PBS. The ends of bones were cut and marrow harvested in complete media (RPMI 1640, 10% heat inactivated FBS, 1% penicillin/streptomycin, 2 mM L-glutamine, 1 mM sodium pyruvate, 25 mM HEPES, 50 μM 2-mercaptoethanol). Bone marrow cells were passed through a 70 μm strainer and centrifuged at 1000 rpm for 7 min. and resuspended in complete media supplemented with 100 ng/ml murine Flt3L to 2×10^6 cells/ml. 2 ml of cells were seeded in 6-well plates and 1 ml fresh media was added every two to three days. On day 9 of culture, non-adherent cells were washed in complete media and plated into 96-well plates at concentrations ranging from 0.5 to 2.5×10^5 cells/well.
Loxoribine (InvivoGen; San Diego, Calif.), polyIC (Sigma-Aldrich; St. Louis, Mo.), and formulated nucleic acids were diluted in PBS and added to either human PBMC or Flt3L DC cultures. Cells were incubated 24 h at 37° C. before supernatants were assayed for cytokines by ELISA.
Cytokine ELISA. All cytokines were quantified using sandwich ELISA kits according to the manufacturer's instructions. These were mouse and human IFN-α (PBL Biomedical; Piscataway, N.J.) and IL-6 (eBioscience; San Diego, Calif.).

“polyUmod21: 2′OMe-uridine homopolymer of 21 nucleotides in length (UUUUUUUUUUUUUUUUUUUUU; all 2'-O-methyl, backbone not given here)”: the “level of IFN-α induction by Type B ODN (1826) when co-formulated” value is given as “no inhibitory effect” and the “level of IFN-α induction by Type C ODN (M362) when co-formulated” value was “no inhibitory effect”.

Values taken from patent US20080171716A1, “NUCLEIC ACID MODULATION OF TOLL-LIKE RECEPTOR-MEDIATED IMMUNE STIMULATION” (Protiva Biotherapeutics, Inc., priority 2006, published 2008).
